In PubChem BioAssay (NCI):
Values joined by “and” are separate entries in the source; they are usually repeats but may differ in a detail not shown here. Identical values can stand only once.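 Tested at 5 concentrations; 48 h exposure; 96-well plates; endpoints linearly interpolated, else capped at highest concentration. GI50 marks 50% less growth. At the TGI there is no net growth.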

What was measured:
Experiment in all cases: NCI-60 cell line screen, 48 h
CCRF-CEM leukemia = tested on: CCRF-CEM leukemia
M14 melanoma = tested on: M14 melanoma
NCI-H23 lung = tested on: NCI-H23 lung
OVCAR-4 ovarian = tested on: OVCAR-4 ovarian
SF-295 CNS = tested on: SF-295 CNS
SR leukemia = tested on: SR leukemia
T-47D breast = tested on: T-47D breast
U251 CNS = tested on: U251 CNS
UACC-257 melanoma = tested on: UACC-257 melanoma
CAKI-1 renal = tested on: CAKI-1 renal

CC(C)(C)OC(=O)C1C(=O)NC(=O)CC1C(OCc1ccccc1)C(OCc1ccccc1)C(COCc1ccccc1)OCc1ccccc1 (stereo unspecified)
GI50 (CCRF-CEM leukemia): > 100 µM and 49.1 µM | TGI (CCRF-CEM leukemia): > 100 µM | TGI (M14 melanoma): > 100 µM | TGI (NCI-H23 lung): > 100 µM | TGI (OVCAR-4 ovarian): > 100 µM | TGI (SF-295 CNS): > 100 µM | GI50 (SR leukemia): > 100 µM and 35.1 µM | TGI (SR leukemia): > 100 µM | TGI (T-47D breast): 14.6 µM | GI50 (U251 CNS): 68 µM and 14.4 µM | TGI (U251 CNS): > 100 µM | TGI (UACC-257 melanoma): > 100 µM

CCOC(=O)CCCN
TGI (CAKI-1 renal): > 100 µM | TGI (CCRF-CEM leukemia): > 100 µM | TGI (M14 melanoma): > 100 µM | TGI (NCI-H23 lung): > 100 µM | TGI (OVCAR-4 ovarian): > 100 µM | TGI (SF-295 CNS): > 100 µM | TGI (T-47D breast): > 100 µM | TGI (U251 CNS): > 100 µM | TGI (UACC-257 melanoma): > 100 µM

COc1cc(OC)c(-n2[nH]c(=O)n(C)c2=O)c(OC)c1
TGI (CAKI-1 renal): > 100 µM | TGI (CCRF-CEM leukemia): > 100 µM | TGI (M14 melanoma): > 100 µM | TGI (NCI-H23 lung): > 100 µM | TGI (OVCAR-4 ovarian): > 100 µM | TGI (SR leukemia): > 100 µM | TGI (T-47D breast): > 100 µM | TGI (U251 CNS): > 100 µM | TGI (UACC-257 melanoma): > 100 µM

CN(C)CC1CCC/C(=C\c2ccc(Cl)c(Cl)c2)C1=O (stereo unspecified)
TGI (CAKI-1 renal): 7.7 µM | TGI (CCRF-CEM leukemia): 2.68 µM | TGI (M14 melanoma): 11.2 µM | TGI (NCI-H23 lung): 23.8 µM | TGI (OVCAR-4 ovarian): 14.3 µM | TGI (SF-295 CNS): 25.8 µM | TGI (T-47D breast): 5.71 µM | TGI (U251 CNS): 6.52 µM | TGI (UACC-257 melanoma): 21.7 µM

COc1cc2c(c3nc4ccccc4nc13)-c1ccc(SC)c(=O)cc1[C@@H](NC(C)=O)CC2
TGI (CAKI-1 renal): > 100 µM | TGI (CCRF-CEM leukemia): > 100 µM | TGI (M14 melanoma): > 100 µM | TGI (NCI-H23 lung): 0.066 µM | TGI (OVCAR-4 ovarian): > 69.2 µM | TGI (SF-295 CNS): > 100 µM | TGI (SR leukemia): > 100 µM | TGI (U251 CNS): > 100 µM | TGI (UACC-257 melanoma): > 100 µM

COC(=O)[C@H](Cc1ccccc1)NC(=O)N(CCN(CCC#N)C(=O)N[C@H](C(=O)OC)C(C)C)c1ccccc1
TGI (CAKI-1 renal): > 100 µM | TGI (CCRF-CEM leukemia): > 100 µM | TGI (M14 melanoma): > 100 µM | TGI (NCI-H23 lung): > 100 µM | TGI (OVCAR-4 ovarian): > 100 µM | TGI (SF-295 CNS): > 100 µM | TGI (T-47D breast): > 100 µM | TGI (U251 CNS): > 100 µM | TGI (UACC-257 melanoma): > 100 µM

COC1CCC(O)C(CO)O1 (stereo unspecified)
TGI (CCRF-CEM leukemia): 77.3 µM | TGI (M14 melanoma): > 100 µM | TGI (NCI-H23 lung): > 100 µM | TGI (OVCAR-4 ovarian): > 100 µM | TGI (SF-295 CNS): > 100 µM | TGI (SR leukemia): > 100 µM | TGI (UACC-257 melanoma): > 100 µM

CN(C(=O)Cc1cc(Cl)c(Cl)cc1NC(=O)CCCN)[C@H]1CCCC[C@@H]1N1CCCC1
TGI (CAKI-1 renal): > 100 µM | TGI (M14 melanoma): 34 µM | TGI (NCI-H23 lung): > 100 µM | TGI (OVCAR-4 ovarian): > 100 µM | TGI (SF-295 CNS): > 100 µM | TGI (SR leukemia): > 100 µM | TGI (T-47D breast): > 100 µM | TGI (U251 CNS): 35.3 µM | TGI (UACC-257 melanoma): 33.3 µM

C[C@]12C(=O)OC[C@H](c3ccccc3)N1C(=O)N(Cc1ccccc1)[C@@H]2CO
TGI (CAKI-1 renal): > 100 µM | TGI (CCRF-CEM leukemia): > 100 µM | TGI (M14 melanoma): > 100 µM | TGI (OVCAR-4 ovarian): > 100 µM | TGI (SF-295 CNS): > 100 µM | TGI (SR leukemia): > 100 µM | TGI (UACC-257 melanoma): > 100 µM

C/C(=N/NC(=S)N1CCCCCC1)c1cccc(/C(C)=N\NC(=S)N2CCCCCC2)n1
TGI (M14 melanoma): 3.53 µM | TGI (NCI-H23 lung): 5.44 µM | TGI (OVCAR-4 ovarian): 2.44 µM | TGI (SF-295 CNS): 4.12 µM | TGI (SR leukemia): 5.84 µM | TGI (T-47D breast): 5.95 µM | TGI (U251 CNS): 4.77 µM | TGI (UACC-257 melanoma): 3.45 µM

O=C(CN1CCCCC1)c1ccc2[nH]c(=O)oc2c1
TGI (CAKI-1 renal): > 100 µM | TGI (CCRF-CEM leukemia): > 100 µM | TGI (M14 melanoma): > 100 µM | TGI (NCI-H23 lung): > 100 µM | TGI (SF-295 CNS): > 100 µM | TGI (SR leukemia): > 100 µM | TGI (U251 CNS): > 100 µM | TGI (UACC-257 melanoma): > 100 µM
